{
  "source": "patent US20170239351A1",
  "about": "“Therapeutic Combinations of a BTK Inhibitor, a PI3K Inhibitor, a JAK-2 Inhibitor, a PD-1 Inhibitor, and/or a PD-L1 Inhibitor” (Acerta Pharma B.V., priority 2014, published 2017)",
  "key": {"[1]": {"system": "expression of activation markers CD69 and CD86", "experiment": "In vivo potency: BCR stimulated with IgM, CD69 and CD86 expression by flow cytometry", "conditions": "mice gavaged, 3 h post-dose", "protocol": "Mice were gavaged at increasing drug concentration and sacrificed at one time point (3 h post-dose). BCR is stimulated with IgM and the expression of activation markers CD69 and CD86 are monitored by flow cytometry to determine EC50's."}, "[2]": {"target": "BTK (Homo sapiens, UniProt Q06187)", "sequence (Q06187 whole entry)": "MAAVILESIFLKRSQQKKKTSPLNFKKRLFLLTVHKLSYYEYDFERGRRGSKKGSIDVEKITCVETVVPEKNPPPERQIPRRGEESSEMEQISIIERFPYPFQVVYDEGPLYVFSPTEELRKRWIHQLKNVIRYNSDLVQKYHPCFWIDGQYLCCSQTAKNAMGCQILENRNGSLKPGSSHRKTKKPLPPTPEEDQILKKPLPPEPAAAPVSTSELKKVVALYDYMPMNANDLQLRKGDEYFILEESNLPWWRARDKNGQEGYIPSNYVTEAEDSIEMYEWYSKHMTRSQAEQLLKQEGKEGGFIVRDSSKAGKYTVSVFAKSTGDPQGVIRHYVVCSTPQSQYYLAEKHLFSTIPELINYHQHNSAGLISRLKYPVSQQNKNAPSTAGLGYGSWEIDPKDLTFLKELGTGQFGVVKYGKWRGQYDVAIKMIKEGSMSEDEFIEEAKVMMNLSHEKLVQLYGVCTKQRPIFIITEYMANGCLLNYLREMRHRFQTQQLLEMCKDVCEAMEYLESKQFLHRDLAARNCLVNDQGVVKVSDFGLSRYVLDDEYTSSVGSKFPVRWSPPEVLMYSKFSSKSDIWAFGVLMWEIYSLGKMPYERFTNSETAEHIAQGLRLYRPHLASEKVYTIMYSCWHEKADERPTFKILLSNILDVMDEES", "experiment": "BTK target occupancy in relapsed/refractory CLL patients", "assay_type": "in vivo", "conditions": "at lower dosage versus ibrutinib"}, "[3]": {"system": "KPC derived mouse pancreatic cancer cells", "experiment": "Orthotopic pancreatic cancer model (KPC-derived cells)", "assay_type": "in vivo, C57BL/6 mice", "conditions": "15 mg/kg oral of each drug", "protocol": "Orthotopic pancreatic cancer models in mice are clinically relevant, benefit from tissue site-specific pathology, and allow for study of metastasis. Qiu and Su, Methods Mol. Biol. 2013, 980, 215-223. A cell line derived from KrasG12D; Trp53R172H; Pdx1-Cre (KPC) mice was orthotopically implanted into the head of the pancreas after 35 passages. Based on the mice background from where the cell lines were generated, 1×10^6 cells were injected in C57BL/6 mice. Throughout the experiment, animals were provided with food and water ad libitum and subjected to a 12-h dark/light cycle. Animal studies were performed in accordance with the U.S. Public Health Service “Guidelines for the Care and Use of Laboratory Animals” (IACUC). After euthanization, pancreatic tumors were dissected out, weighed and single cell suspensions were prepared for flow cytometry analysis.\nResults of the experiments are shown in FIG. 110, which illustrates tumor growth suppression in the orthotopic pancreatic cancer model. The statistical p-value (presumption against null hypothesis) is shown for each tested single active pharmaceutical ingredient and for the combination against the vehicle.\nIn this study, KrasG12D;Trp53R172H; Pdx1-Cre (KPC) derived mouse pancreatic cancer cells (10,000 cells) were injected into the pancreases of 24 female mice. After one week of expansion, drug treatment was started in mice developing pancreatic tumors.\nSingle cell suspensions from tumor samples were prepared as follows. Mouse tumor tissue was collected and stored in PBS/0.1% soybean trypsin inhibitor prior to enzymatic dissociation. […] Following surface staining, samples were acquired on a BD Fortessa and analyzed using FlowJo (Treestar) software."}, "[4]": {"system": "human platelets", "experiment": "GPVI (convulxin-induced) platelet aggregation", "assay_type": "cell-based", "protocol": "GPVI platelet aggregation was measured for Formula (XVIII) and Formula (XX-A) (ibrutinib). Blood was obtained from untreated humans, and platelets were purified from […] by centrifugation. Cells were resuspended to a final concentration of 350,000/μL in buffer containing 145 mmol/L NaCl, 10 mmol/L HEPES, 0.5 mmol/L Na2HPO4, 5 mmol/L KCl, 2 mmol/L MgCl2, 1 mmol/L CaCl2, and 0.1% glucose, at pH 7.4. Stock solutions of Convulxin (CVX) GPVI were prepared on the day of experimentation and added to platelet suspensions 5 minutes (37° C., 1200 rpm) before the induction of aggregation. Aggregation was assessed with a Chronolog Lumi-Aggregometer (model 540 VS; Chronolog, Havertown, Pa.) and permitted to proceed for 6 minutes after the addition of agonist. The results are reported as maximum percent change in light transmittance from baseline with platelet buffer used as a reference.\nIn FIG. 129, the results of CVX-induced (250 ng/mL) human platelet aggregation results before and 15 minutes after administration of the BTK inhibitors to 6 healthy individuals are shown."}, "[5]": {"target": "EGFR (Homo sapiens, UniProt P00533)", "sequence (P00533 25-1210)": "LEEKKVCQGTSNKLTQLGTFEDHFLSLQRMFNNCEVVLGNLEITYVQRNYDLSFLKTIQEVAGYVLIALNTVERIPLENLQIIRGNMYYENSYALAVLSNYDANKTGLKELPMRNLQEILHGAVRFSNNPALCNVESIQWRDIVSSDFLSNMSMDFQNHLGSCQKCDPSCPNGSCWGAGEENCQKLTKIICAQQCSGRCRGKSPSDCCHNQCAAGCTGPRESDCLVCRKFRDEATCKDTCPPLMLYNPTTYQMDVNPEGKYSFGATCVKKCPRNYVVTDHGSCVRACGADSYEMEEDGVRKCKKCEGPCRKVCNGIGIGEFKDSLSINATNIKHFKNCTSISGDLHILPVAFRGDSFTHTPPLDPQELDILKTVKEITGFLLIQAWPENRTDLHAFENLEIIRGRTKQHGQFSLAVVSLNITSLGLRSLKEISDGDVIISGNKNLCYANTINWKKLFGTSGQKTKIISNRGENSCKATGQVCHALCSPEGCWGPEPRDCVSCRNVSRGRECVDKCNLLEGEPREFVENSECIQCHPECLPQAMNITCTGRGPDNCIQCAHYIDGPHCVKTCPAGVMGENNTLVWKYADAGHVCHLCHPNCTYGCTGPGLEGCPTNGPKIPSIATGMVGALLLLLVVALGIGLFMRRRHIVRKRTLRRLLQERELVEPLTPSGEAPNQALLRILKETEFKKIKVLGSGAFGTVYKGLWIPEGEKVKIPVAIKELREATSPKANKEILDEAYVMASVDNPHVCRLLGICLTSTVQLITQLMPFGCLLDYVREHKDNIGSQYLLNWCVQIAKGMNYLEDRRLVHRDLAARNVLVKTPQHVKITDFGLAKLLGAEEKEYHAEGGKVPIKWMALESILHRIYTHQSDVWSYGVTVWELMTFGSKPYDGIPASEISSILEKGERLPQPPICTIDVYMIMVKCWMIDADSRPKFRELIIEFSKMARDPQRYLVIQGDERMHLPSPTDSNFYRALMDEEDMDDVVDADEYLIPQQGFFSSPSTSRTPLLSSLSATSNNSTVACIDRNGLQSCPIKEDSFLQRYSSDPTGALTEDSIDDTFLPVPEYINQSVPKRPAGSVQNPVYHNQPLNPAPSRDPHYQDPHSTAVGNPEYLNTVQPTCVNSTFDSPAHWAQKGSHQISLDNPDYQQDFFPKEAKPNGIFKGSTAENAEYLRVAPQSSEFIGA", "experiment": "EGF-induced EGFR phosphorylation in A431 cells (phosphoflow)", "conditions": "10 μM (highest concentration tested)"}, "[6]": {"experiment": "Respiratory function study (GLP safety pharmacology)", "conditions": "doses through 300 mg/kg"}, "[7]": {"system": "relapsed/refractory CLL", "experiment": "Clinical study of Formula (XVIII) in relapsed/refractory CLL/SLL"}},
  "note": "“Also recorded” adds a separate entry of the source.",
  "data": [
    {"smiles": "CC#CC(=O)N1CCC[C@H]1c1nc(-c2ccc(C(=O)Nc3ccccn3)cc2)c2c(N)nccn12", "note": "[Formula (XVIII), (S)-4-(8-amino-3-(1-(but-2-ynoyl)pyrrolidin-2-yl)imidazo[1,5-a]pyrazin-1-yl)-N-(pyridin-2-yl)benzamide]", "values": [
      {"measurement": "inhibition of expression of activation markers CD69 and CD86, compared with ibrutinib", "setting": "[1]", "value": "more potent at inhibiting expression of activation makers than ibrutinib"},
      {"measurement": "BTK target occupancy", "setting": "[2]", "value": "improved BTK target occupancy"},
      {"measurement": "immunosuppressive tumor associated myeloid cells and Tregs", "setting": "[3]", "value": "reduce immunosuppressive tumor associated myeloid cells and Tregs"},
      {"measurement": "tumor volume versus vehicle", "setting": "[3]", "value": "statistically significant reductions in tumor volume"},
      {"measurement": "GPVI platelet aggregation", "setting": "[4]", "value": "does not"},
      {"measurement": "inhibition of EGFR phosphorylation", "setting": "[5]", "value": "no inhibition; also recorded: does not inhibit EGFR"},
      {"measurement": "respiratory function", "setting": "[6]", "value": "no treatment-related adverse effects"},
      {"measurement": "PD, %", "setting": "[7]; 100 mg BID (N = 3)", "value": "(0) %"},
      {"measurement": "PR, %", "setting": "[7]; 100 mg BID (N = 3)", "value": "(100) %"},
      {"measurement": "PD, %", "setting": "[7]; 100 mg QD (N = 8)", "value": "(0) %"},
      {"measurement": "PR, %", "setting": "[7]; 100 mg QD (N = 8)", "value": "(88) %"},
      {"measurement": "PD, %", "setting": "[7]; 175 mg QD (N = 8)", "value": "(0) %"},
      {"measurement": "PR + L, %", "setting": "[7]; 175 mg QD (N = 8)", "value": "(37) %"},
      {"measurement": "PR, %", "setting": "[7]; 175 mg QD (N = 8)", "value": "(63) %"},
      {"measurement": "PD, %", "setting": "[7]; 250 mg QD (N = 7)", "value": "(0) %"},
      {"measurement": "PR + L, %", "setting": "[7]; 250 mg QD (N = 7)", "value": "(29) %"},
      {"measurement": "PR, %", "setting": "[7]; 250 mg QD (N = 7)", "value": "(71) %"},
      {"measurement": "PD, %", "setting": "[7]; 400 mg QD (N = 5)", "value": "(0) %"},
      {"measurement": "PR + L, %", "setting": "[7]; 400 mg QD (N = 5)", "value": "(40) %"},
      {"measurement": "PR, %", "setting": "[7]; 400 mg QD (N = 5)", "value": "(40) %"},
      {"measurement": "PD, %", "setting": "[7]; All Cohorts (N = 31)", "value": "(0) %"},
      {"measurement": "PR + L, %", "setting": "[7]; All Cohorts (N = 31)", "value": "(23) %"},
      {"measurement": "PR, %", "setting": "[7]; All Cohorts (N = 31)", "value": "(71) %"},
      {"measurement": "time of treatment to reach the same median % change in SPD", "setting": "[7]; CLL patients", "value": 7, "unit": "months"},
      {"measurement": "Headache, treatment-related adverse event", "setting": "[7]; Grade 1/2, All (N = 44)", "value": "7 (16) n (%)"},
      {"measurement": "Diarrhea, treatment-related adverse event", "setting": "[7]; Grade 1, All (N = 44)", "value": "4 (9) n (%)"},
      {"measurement": "Increased tendency to bruise, treatment-related adverse event", "setting": "[7]; Grade 1, All (N = 44)", "value": "6 (14) n (%)"},
      {"measurement": "Petechiae, treatment-related adverse event", "setting": "[7]; Grade 1, All (N = 44)", "value": "3 (7) n (%)"},
      {"measurement": "dose-limiting toxicities (DLTs)", "setting": "[7]; human, in vivo", "value": "No DLTs were observed"},
      {"measurement": "grade of adverse events", "setting": "[7]; human, in vivo", "value": "only grade 1 AEs were observed"},
      {"measurement": "lymphocytosis", "setting": "[7]; human, in vivo", "value": "A lack of lymphocytosis was observed"},
      {"measurement": "plasma CXCL12 and CCL2 levels", "setting": "[7]; human, in vivo", "value": "significant decrease"},
      {"measurement": "treatment-related serious adverse events (SAEs)", "setting": "[7]; human, in vivo", "value": "No treatment-related serious adverse events (SAEs) were observed"},
      {"measurement": "progression in patients with the 17p deletion", "setting": "[7]; to date", "value": "no 17p patients have progressed"}
    ]}
  ]
}
